# Experiments:
# VKOR [1] = target: T1, VKOR (Homo sapiens, UniProt Q9BQB6); assay: Warfarin sensitivity of VKOR (mGC11276) expressed in Sf9 insect cells; type: biochemical
# T1 construct: from tissue; host or cells: patients on warfarin (in vivo); genomic DNA from whole blood
# Method: FIG. 4. VKOR activity was detected when mGC_11276 was expressed in Sf9 insect cells. ˜1×10^6 cells were used in this assay. […] Blank Sf9 cells served as a negative control and A549 cells as a reference.
# siRNA transfected A549 cells were trypsinized and washed twice with cold PBS. 1.5×10^7 cells were taken for each VKOR assay. 200 μL buffer D (250 mM Na2HPO4—NaH2PO4, 500 mM KCI, 20% glycerol and 0.75% CHAPS, pH 7.4) was added to the cell pellet, followed by sonication of the cell lysate. For assays of solubilized microsomes, microsomes were prepared from 2×10^9 cells as described (Lin et al. (2002) “The putative vitamin K-dependent gamma-glutamyl carboxylase internal propeptide appears to be the propeptide binding site” J Biol Chem 277:28584-91); 10 to 50 μL of solubilized microsomes were used for each assay. Vitamin K epoxide was added to the concentration indicated in the figure legends and DTT was added to 4 mM to initiate the reaction. […] 500 μL hexane was added and the mixture was vortexed vigorously for 1 minute to extract the vitamin K and KO. After 5 minutes centrifugation, the upper organic layer was transferred to a 5-mL brown vial and dried with N2. 150 μL HPLC buffer, acetonitrile:isopropanol:water (100:7:2), was added to dissolve the vitamin K and KO and the sample was analyzed by HPLC on an A C-18 column (Vydac, cat#218TP54). […]
# VKOR [2] = target: T1, VKOR; assay: Correlation of VKOR gene SNPs with warfarin maintenance dose in patients; type: in vivo
# Text: The most prevalent isoform of the VKOR gene is about 4 kb long, has three exons and encodes an enzyme of 163 amino acids with a mass of 18.4 kDa.
# Subjects were obtained from the UNC Coagulation Clinic in the Ambulatory Care Center. Informed consent was obtained by a trained genetic counselor. Subjects not fluent in English were excluded because of the lack of translators and the requirement for consent.
# Genomic DNAs were extracted from the whole blood of subjects using QIAamp DNA Blood Mini Kit (QIAGEN cat#51104). The DNA concentration was adjusted to 10 ng/μL.
# Approximately 10 ng of DNA was used for polymerase chain reaction (PCR) assays. The primers used to amplify the VKOR gene were: Exon 1-5′ […] (SEQ ID NO:29) and Exon 1-3′ […] (SEQ ID NO:30) for the 5′-UTR and Exon 1 region; Exon 2-5′ […] (SEQ ID NO:31) and Exon 2-3′ […] (SEQ ID NO:32) for the Exon 2 region; and Exon 3-5′ […] (SEQ ID NO:33) and Exon 3-3′ […] (SEQ ID NO:34) for the Exon3 and 3′-UTR region. Automated high throughput capillary electrophoresis DNA sequencing was used for detecting SNPs in the VKOR gene.
# The assay reagents for SNP genotyping were from the Assay-by-Design™ service (Applied Biosystems, cat#4332072). The primers and probes (FAM™ and VIC™ dye-labeled) were designed using Primer Express software and were synthesized in an Applied Biosystems synthesizer. The primer pairs for each SNP are located at the upstream/downstream position of the SNP site and can generate less than 100 bp length of a DNA fragment in the PCR reaction. The FAM™ and VIC™ dye-labeled probes were designed to cover the SNP sites with a length of 15-16 nt.
# The 2× TaqMan™ Universal PCR Master Mix, No AmpErase UNG (Applied Biosystems, cat#4324018) was used in the PCR reactions. Forty cycles of real-time PCR were performed in an Opticon II (MJ Research) machine. There was a 10 minute 95° C. preheat followed by 92° C. for 15 sec, 60° C. for 1 min. and then a plate reading. The results were read according to the signal value of FAM and VIC dye.
# The difference of average dose between different genotypes was compared by analysis of variance (ANOVA) using SAS version 8.0 (SAS, Inc., Cary, N.C.). A two-sided p value less than 0.05 was considered significant.
# Each marker was first analyzed independently.
# The three VKOR SNPs are located within 2 kb distance of one another and are expected to be closely linked.
# T1 sequence (Q9BQB6 whole entry): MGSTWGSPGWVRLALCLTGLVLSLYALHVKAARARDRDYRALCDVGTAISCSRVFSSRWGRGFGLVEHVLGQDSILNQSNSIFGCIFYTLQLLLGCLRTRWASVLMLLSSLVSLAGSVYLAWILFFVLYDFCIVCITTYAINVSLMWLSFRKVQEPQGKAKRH
smiles,measurement,setting,value
CC(=O)CC(c1ccccc1)c1c(O)c2ccccc2oc1=O (stereo not shown) [warfarin],warfarin sensitivity of VKOR activity,VKOR [1]; Sf9 cells transfected with mGC11276 cDNA,warfarin sensitive
same,warfarin sensitivity of VKOR activity,"VKOR [1]; microsomes from Sf9 cells expressing VKOR, 60 μM KO, 30° C., 15 minutes",warfarin-sensitive
same,average warfarin dose,"VKOR [2]; patients heterozygous for vk2581, n=17",35.19±3.73 mg per week
same,average warfarin dose,"VKOR [2]; patients heterozygous for vk3294, n=25",41.68±4.92 mg per week
same,average warfarin dose,"VKOR [2]; patients heterozygous for vk4769, n=19",44.48±4.80 mg per week
same,average warfarin dose,"VKOR [2]; patients homozygous for vk2581, n=15",31.14±6.2 mg per week
same,average warfarin dose,"VKOR [2]; patients homozygous for vk3294, n=22",47.73±2.75 mg per week
same,average warfarin dose,"VKOR [2]; patients homozygous for vk4769, n=12",47.56±3.86 mg per week
same,warfarin dosage,VKOR [2]; patients with haplotype aaBBCC,25.29±3.05
same,average warfarin dose,"VKOR [2]; patients with vk2581 wild type allele, n=26",50.19±3.20 mg per week
same,average warfarin dose,"VKOR [2]; patients with vk4769 SNP wild type, n=27",35.35±4.01 mg per week
same,average warfarin dose,"VKOR [2]; patients with wild-type vk3294 allele, n=11",25.29±3.05 mg per week
same,warfarin dosage,"VKOR [2]; subjects with haplotype AAbbcc, n=7",48.98±3.93

# Source: US9441208B2, “Methods and compositions for producing vitamin K dependent proteins” (The University of North Carolina at Chapel Hill, priority 2003, dated 2016)
